Data: publication PMC8728392, “Synthesis, Anticancer Assessment, and Molecular Docking of Novel Chalcone-Thienopyrimidine Derivatives in HepG2 and MCF-7 Cell Lines” (Oxidative Medicine and Cellular Longevity, 2021)

Key:
[1] = tested on: human liver cancer cell line (HepG2); experiment: MTT assay, cytotoxicity; assay type: cell-based; conditions: for survival percentage (mean ± SEM): HepG2, 24 hours
How it was run: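 Cells were seeded at 5×10^4/well in DMEM and allowed to attach for 24 h, then exposed to compounds in DMSO for 24 h, in triplicate wells. MTT added for 4 h, then OD read at […]. Survival is expressed as % of DMSO control, and IC50 is taken from survival-versus-concentration plots.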

[2] = tested on: Bax, Bcl-2, caspase-3, and caspase-9 in MCF-7; experiment: RT-PCR relative expression of apoptosis markers; assay type: cell-based, human; conditions: IC50, 8-hour incubation; for expression levels of Bax / expression levels of Bcl-2 / expression levels of caspase-3 / expression levels of caspase-9: vs control
From the text: (§1) We determined the effect of IC50 concentration of newly synthesized thienopyrimidine derivatives (3a-e and 3g and 3b and 3g) on the relative expression levels of some markers of apoptosis in HepG2 and MCF-7 cell lines, respectively. These included the antiapoptotic marker Bcl-2 as well as the apoptotic markers Bax, caspase-3, and caspase-9 [33]. BIORAD iScript™ One-Step RT-PCR kit with SYBR® Green was used to assess the relative levels of expression of apoptosis markers. The measurement was carried out according to the technique of reverse transcription polymerase chain reaction (RT-PCR) using the Rotor-Gene RT-PCR system, and the method of the used kit was done based on the manufacturer's instructions. The procedure of this assay included the following:
(§2) Based on the manufacturer's instructions, the Qiagen RNeasy Extraction Kit (Qiagen Ltd., UK) was used to isolate mRNA from approximately 1 × 10^7 cells according to the cell line.
(§3) Mix all the following reagents to get the total volume (50 μl): 2X SYBR® Green RTPCR reaction mixture (25 μl), forward primer […] (1.5 μl), reverse primer […] (1.5 μl), nuclease-free water (11 μl), RNA template (1 pg-100 ng total RNA) (10 μl), and iScript reverse transcriptase (1 μl) for One-Step RT-PCR.
(§4) The thermal cycler (Rotor-Gene) program used was as follows: one cycle for reverse transcription at 50°C for 10 minutes and one cycle for RT inactivation/Hot-start activation at 95°C for 5 minutes and then 45 cycles for qPCR (10 s at 95°C, 30 seconds for annealing at 55°C, and 30 seconds for extension at 72°C), and this is followed by the final extension (one cycle) at 72°C for 10 minutes.

[3] = tested on: Bax, Bcl-2, caspase-3, and caspase-9 in HepG2; experiment: RT-PCR relative expression of apoptosis markers; assay type: cell-based, human; conditions: IC50, 8-hour incubation, vs control
From the text: as §1, §2, §3, §4

MCF-7 cell line = experiment: Annexin V-FITC/PI apoptotic assay; assay type: cell-based, human
From the text: Annexin V-fluorescein isothiocyanate (FITC) and counterstaining with propidium iodide (PI) using the Annexin V-FITC/PI apoptosis detection kit (BD Biosciences, San Diego, CA) were employed to distinguish early and late apoptotic cells according to the manufacturer's directions. Annexin V conjugated with fluorescein isothiocyanate was used to quantify the loss of phosphatidylserine asymmetry in cell membranes involved in apoptosis, and propidium iodide can distinguish between early apoptosis, late apoptotic, and necrotic cells. Analyses were achieved by using a FACSCalibur flow cytometer (BD Biosciences, San Jose, CA).
Cells were gently washed twice with PBS accompanied by tryptic digestion (0.25% trypsin/EDTA) and washed yet again with PBS. All the cells including the floating and adherent ones were harvested, pooled and stained with […] in 1× binding buffer for 15 min at room temperature in the dark. Analyses were achieved by FACS Calibur flow cytometer (BD Biosciences, San Jose, CA).

Compound: CCOC(=O)Cn1c(SCC(=O)Nc2ccc(C(=O)/C=C\c3cccc([N+](=O)[O-])c3)cc2)nc2sc3c(c2c1=O)CC(C)(C)NC3(C)C [Compound 3g, Ethyl (Z)-2-(6,6,8,8-Tetramethyl-2-((2-((4-(3-(3-nitrophenyl)acryloyl)-phenyl)amino)-2-oxoethyl)thio)-4-oxo-5,6,7,8-tetrahydropyrido[4′,3′:4,5]thieno[2,3-d]pyrimidin-3(4H)-yl)acetate]
- survival percentage (mean ± SEM) ([1]; 4.8828125 μg/ml): 131.3 ± 0.033%
- survival percentage (mean ± SEM) ([1]; 9.765625 μg/ml): 115.9 ± 0.098%
- survival percentage (mean ± SEM) ([1]; 19.53125 μg/ml): 97.8 ± 0.053%
- survival percentage (mean ± SEM) ([1]; 39.0625 μg/ml): 64.1 ± 0.038%
- survival percentage (mean ± SEM) ([1]; 78.125 μg/ml): 17.5 ± 0.002%
- survival percentage (mean ± SEM) ([1]; 156.25 μg/ml): 14.5 ± 0.003%
- survival percentage (mean ± SEM) ([1]; 312.5 μg/ml): 14.1 ± 0.002%
- survival percentage (mean ± SEM) ([1]; 625 μg/ml): 13.0 ± 0.003%
- survival percentage (mean ± SEM) ([1]; 1250 μg/ml): 12.5 ± 0.001%
- survival percentage (mean ± SEM) ([1]; 2500 μg/ml): 12.7 ± 0.002%
- survival percentage (mean ± SEM) ([1]; 5000 μg/ml): 12.5 ± 0.001%
- survival percentage (mean ± SEM) ([1]; 10000 μg/ml): 12.3 ± 0.002%
- fold more potent activity than 5-FU ([1]; HepG2 cell line): 420.94 fold
- Bax/Bcl-2 ratios [2]: strikingly elevated
- expression levels of Bax [2]: significant elevation
- expression levels of Bcl-2 [2]: remarkable decrease
- expression levels of caspase-3 [2]: significant elevation
- expression levels of caspase-9 [2]: significant elevation
- expression levels of Bcl-2 [3]: noticeably decreased

Compound: CCOC(=O)Cn1c(SCC(=O)Nc2ccc(C(=O)/C=C\c3cc(OC)c(OC)c(OC)c3)cc2)nc2sc3c(c2c1=O)CCN(C(=O)OCC)C3 [Compound 3b, Ethyl (Z)-3-(2-Ethoxy-2-oxoethyl)-4-oxo-2-((2-oxo-2-((4-(3-(3,4,5 trimethoxyphenyl)acryloyl)phenyl)amino)ethyl)thio)-3,5,6,8 tetra-hydropyrido[4′,3′:4,5]thieno[2,3-d]pyrimidine-7(4H)-carboxylate]
- survival percentage (mean ± SEM) ([1]; 4.8828125 μg/ml): 110.1 ± 0.046%
- survival percentage (mean ± SEM) ([1]; 9.765625 μg/ml): 67.9 ± 0.048%
- survival percentage (mean ± SEM) ([1]; 19.53125 μg/ml): 23.2 ± 0.012%
- survival percentage (mean ± SEM) ([1]; 39.0625 μg/ml): 18.4 ± 0.006%
- survival percentage (mean ± SEM) ([1]; 78.125 μg/ml): 17.3 ± 0.007%
- survival percentage (mean ± SEM) ([1]; 156.25 μg/ml): 16.2 ± 0.004%
- survival percentage (mean ± SEM) ([1]; 312.5 μg/ml): 13.3 ± 0.004%
- survival percentage (mean ± SEM) ([1]; 625 μg/ml): 12.9 ± 0.006%
- survival percentage (mean ± SEM) ([1]; 1250 μg/ml): 12.7 ± 0.002%
- survival percentage (mean ± SEM) ([1]; 2500 μg/ml): 12.2 ± 0.001%
- survival percentage (mean ± SEM) ([1]; 5000 μg/ml): 12.1 ± 0.001%
- survival percentage (mean ± SEM) ([1]; 10000 μg/ml): 12.1 ± 0.002%
- times more activity compared to compounds 3a and 3c ([1]; HepG2 cell line): ~ 18 times
- total, early, and late apoptosis as well as necrosis relative to the control cells (MCF-7 cell line): significant increase
- Bax/Bcl-2 ratios [2]: strikingly elevated
- expression levels of Bax [2]: significant elevation
- expression levels of Bcl-2 [2]: remarkable decrease
- expression levels of caspase-3 [2]: significant elevation
- expression levels of caspase-9 [2]: significant elevation
